The source of these data is US20160095867A1, “BET INHIBITION THERAPY FOR HEART DISEASE” (DANA-FARBER CANCER INSTITUTE, INC., priority 2013, published 2016).

Series [1] relates to NRVM. The series can be described thus: PE-mediated cardiomyocyte hypertrophy in NRVM (cell area measurement). Format: cell-based, rat. Conditions: nanomolar doses of JQ1 (250 nM), PE 100 μM, 48 hours. On the procedure: NRVM were isolated from the hearts of 2 day old Sprague-Dawley rat pups (Charles River) and maintained under standard conditions as described (Haldar et al., 2010). The cells were differentially plated for 1.5 h in cell culture dishes to remove contaminating non-myocytes. Unless otherwise stated, NRVM were plated at a density of 10^5 cells/mL. Cells were initially plated in growth medium (DMEM supplemented with 5% FBS, 100 U/mL penicillin-streptomycin, and 2 mM L-glutamine) for 24-36 hours and maintained in serum-free media thereafter (DMEM supplemented with 0.1% BSA, 1% insulin-transferrin-selenium liquid media supplement (Sigma 13146), 100 U/mL penicillin-streptomycin, and 2 mM L-glutamine). Media was changed every 2-3 days. Prior to stimulation with agonists, NRVM were maintained in serum-free medium for 48-72 hours. For hypertrophic stimulation, NRVM were incubated with JQ1 versus DMSO at indicated concentrations for 6 h followed by stimulation with PE (100 μM) for indicated timepoints.
NRVM were plated on glass coverslips in 6-well dishes at a density of 10^5 cells/mL. After treatments, cells were briefly fixed in PBS containing 2% PFA, permeabilized with PBST/0.1% Triton X-100, and blocked in PBST/5% horse serum. Primary antibody was anti-sarcomeric α-actinin (Sigma A7811) at 1:800. Fluorophore-tagged anti-mouse secondary antibody (α-mouse Alexa 488 green) was used at 1:1000 dilution. Coverslips were mounted on glass slides with mounting media containing DAPI. Quantitation of cardiomyocyte cell surface area was performed on α-actinin-stained cardiomyocytes using fluorescent microscopy and NIH Image J software as previously described (Liang et al., 2001). Analysis consisted of at least 100 cardiomyocytes in 20-30 fields at 400× magnification. This process was replicated in a least three independent experiments, and the data were combined.

The subject of series [2] is primary Rat Aortic Smooth Muscle Cells (RASMC). The series can be described thus: PDGF-bb induced pathologic smooth muscle cell activation. Format: cell-based. Conditions: JQ1 500 nM, PDGF-bb 10 ng/mL. As for the experimental part: All experiments were performed with primary Rat Aortic Smooth Muscle Cells (RASMC), PDGF-bb (10 ng/mL), and JQ1 (500 nM). JQ1 blocks hallmark features of pathologic smooth muscle activation in response to the agonist PDGF-bb such as (FIG. 14A) proliferation (quantified by radiolabeled thymidine incorporation), (FIG. 14B) migration (quantified using a Transwell migration assay), and (FIG. 14C) pathologic gene induction (qRT-PCR shown for Ptgs2/Cox2). These findings support the efficacy of BET bromodomain inhibition against pathologic smooth muscle growth (n=3-6 per group; *p<0.05 vs. vehicle; **p<0.05 vs. PDGF-bb).

The conditions of series [3]: adult mice, 50 mg/kg/day; cited from earlier work.

As for `Cc1sc2c(c1C)C(c1ccc(Cl)cc1)=N[C@@H](CC(=O)OC(C)(C)C)c1nnc(C)n1-2` [JQ1], the “phenylephrine (PE) mediated cellular hypertrophy (cardiomyocyte area)” value in series [1] was “significantly blocked”. For the same compound, in series [2], the “PDGF-bb induced migration (Transwell migration assay)” value is reported as “blocks”; the “PDGF-bb induced pathologic gene induction (qRT-PCR, Ptgs2/Cox2)” value is “blocks”; the “PDGF-bb induced proliferation (radiolabeled thymidine incorporation)” value is reported as “blocks”. In addition, the “toxicity on chronic administration” value in series [3] is listed as “without significant toxicity”.
